The values below come from paper PMC2151269, “Broad phase II and pharmacokinetic study of methoxy-morpholino doxorubicin (FCE 23762-MMRDX) in non-small-cell lung cancer, renal cancer and other solid tumour patients” (British Journal of Cancer, 1998).

Series [1] in a line: Leucocyte (cellular) drug levels 2 and 24 h after injection. It is filed as in vivo, human. Particulars: leucocytes. The source says: British Jourmal of Cancer (1998) 77(1), 139-146 ? 1998 Cancer Research Campaign Broad phase 11 and pharmacokinetic study of methoxy-morpholino doxorubicin (FCE 23762-MMRDX) in non-small-cell lung cancer, renal cancer and other solid tumour patients M Bakker', JP Droz2, AR Hanauske3, J Verweij4, AT van Oosterom5, HJM Groen', MA Pacciarini6, L Domenigoni6, F van Weissenbruch', E Pianezzola6 and EGE de Vries' 'University Hospital Groningen, The Netherlands; 2Centre L6on Berard, Lyon, France; 3Med. […] Patients received a maximum of six cycles. […] Limitations of the clinical value of anthracyclines are their toxicity profile, especially irreversible, dose-related cardiotoxicity, and intrinsic or acquired tumour resis- tance. Various mechanisms play a role in tumour cell resistance to anthracyclines, including overexpression of drug efflux pumps such as P-glycoprotein, decreased levels of the target enzyme topoisomerase II, and an increase in cellular detoxifying capacity (Kaye and Merry, 1985; Deffie et al, 1989; De Jong et al, 1990; Ford and Hait, 1990; Meijer et al, 1990; Zaman et al, 1994). The morpholinyl anthracyclines have been developed in the course of research aimed at identifying new anthracyclines with at least partially novel modes of action in addition to activity against resis- tant tumours (Acton et al, 1984). […] Box 30.001, 9700 RB Groningen, The Netherlands (Figure 1).

Details of series [2]: method as in Tidefelt et al, 1989. The note with it: 0-48 h after simultaneous infusion of 20 mg of epirubicin and 20 mg of doxorubicin; ref Tidefelt et al, 1989; cited from earlier work.

With “13-dihydro-3'-deamino-3'-[2(S)-methoxy-4-morpholinyl] doxorubicin [13-dihydro metabolite]”, the “Intracellular levels as % of total MMRDX cellular levels” value in series [1] was no more than 5%.
On to `COc1cccc2c1C(=O)c1c(O)c3c(c(O)c1C2=O)C[C@@](O)(C(=O)CO)C[C@@H]3O[C@H]1C[C@H](N)[C@H](O)[C@H](C)O1` [doxorubicin], for which the “Peak cellular concentrations relative to plasma concentrations” value in series [2] is “around 200 times”.
As for `COc1cccc2c1C(=O)c1c(O)c3c(c(O)c1C2=O)C[C@@](O)(C(=O)CO)C[C@@H]3O[C@H]1C[C@H](N)[C@@H](O)[C@H](C)O1` [epirubicin], the “Peak cellular concentrations relative to plasma concentrations” value in series [2] is recorded as “around 200 times”.
